Results: PMC10734772 (Turkish Journal of Chemistry, 2021)

How the values were obtained:
Assay type in all cases: cell-based
K562 = assay: MTT assay, K562 cells; details: Homo sapiens, 24 h, MTT, read-out: Viability rate
Nalm-6 = assay: MTT assay, Nalm-6 cells; details: Homo sapiens, 24 h
Molt-4 = assay: MTT assay, Molt-4 cells; details: Homo sapiens, MOLT-4, 24 h, read-out: Viability rate
Reh = assay: MTT assay, Reh cells; details: Homo sapiens, 24 h, read-out: Viability rate
Jurkat = assay: MTT assay, Jurkat cells; details: Homo sapiens, 24 h, read-out: Viability rate
[1] = MTT assay, Hek293T non-leukemic control cells; details: human, read-out: Viability rate
[2] = tested on: K562, Nalm-6, Molt-4, Reh, Jurkat, Hek293T cell lines; assay: MTT assay, overall judgement over all cell lines; details: overall judgement in words; for 6 and 10: on all cell lines, except Reh
Method: To evaluate in-vitro anti-cancer activity of the newly synthesized compounds, they were tested by using the MTT assay in the BCR-ABL positive leukemic cell line (K562), BCR-ABL negative leukemic cell lines (Nalm-6, Molt-4, Reh and Jurkat), and non-leukemic human embryonic kidney tissue (Hek293T) cell line. […] The viability rate of each concentration was calculated by the formula stated in material and methods, the viability rate results for each cell were presented in Table S2 and Figure S44.

SMILES: COc1ccc(CN2CCN(Cc3ccc(C(=O)Nc4ccc(C)c(Nc5nccc(C)n5)c4)cc3)CC2)c(OC)c1OC [Compound 6]
- viability at 0.3 µM (K562; K562, 0.3 μM): 92.5 ± 0.11%
- viability at 0.5 µM (K562; K562, 0.5 μM): 91.8 ± 0.06%
- viability at 1 µM (K562; K562, 1 μM): 91.8 ± 0.04%
- viability at 3 µM (K562; K562, 3 μM): 88.7 ± 0.05%
- viability at 5 µM (K562; K562, 5 μM): 87.6 ± 0.05%
- viability at 10 µM (K562; K562, 10 μM): 87.3 ± 0.11%
- viability at 15 µM (K562; K562, 15 μM): 87.3 ± 0.1%
- viability at 20 µM (K562; K562, 20 μM): 86.5 ± 0.07%
- viability at 30 µM (K562; K562, 30 μM): 85.5 ± 0.1%
- viability at 50 µM (K562; K562, 50 μM): 78.1 ± 0.1%
- viability at 70 µM (K562; K562, 70 μM): 68.5 ± 0.05%
- viability at 100 µM (K562; K562, 100 μM): 67.5 ± 0.03%
- viability at 150 µM (K562; K562, 150 μM): 67.3 ± 0.02%
- viability at 200 µM (K562; K562, 200 μM): 67.2 ± 0.03%
- viability at 0.3 µM (Nalm-6; Nalm-6, 0.3 μM, MTT, read-out: Viability rate): 100.7 ± 0.01%
- viability at 0.5 µM (Nalm-6; Nalm-6, 0.5 μM, MTT, read-out: Viability rate): 100.5 ± 0.02%
- viability at 1 µM (Nalm-6; Nalm-6, 1 μM, MTT, read-out: Viability rate): 100.1 ± 0.03%
- viability at 3 µM (Nalm-6; Nalm-6, 3 μM, MTT, read-out: Viability rate): 100 ± 0.04%
- viability at 5 µM (Nalm-6; Nalm-6, 5 μM, MTT, read-out: Viability rate): 98.8 ± 0.04%
- viability at 10 µM (Nalm-6; Nalm-6, 10 μM, MTT, read-out: Viability rate): 98 ± 0.02%
- viability at 15 µM (Nalm-6; Nalm-6, 15 μM, MTT, read-out: Viability rate): 95.6 ± 0.02%
- viability at 20 µM (Nalm-6; Nalm-6, 20 μM, MTT, read-out: Viability rate): 82.6 ± 0.02%
- viability at 30 µM (Nalm-6; Nalm-6, 30 μM, MTT, read-out: Viability rate): 71.6 ± 0.01%
- viability at 50 µM (Nalm-6; Nalm-6, 50 μM, MTT, read-out: Viability rate): 55.2 ± 0.01%
- viability at 70 µM (Nalm-6; Nalm-6, 70 μM, MTT, read-out: Viability rate): 43.5 ± 0.01%
- viability at 100 µM (Nalm-6; Nalm-6, 100 μM, MTT, read-out: Viability rate): 42.6 ± 0.01%
- viability at 150 µM (Nalm-6; Nalm-6, 150 μM, MTT, read-out: Viability rate): 42.9 ± 0.01%
- viability at 200 µM (Nalm-6; Nalm-6, 200 μM, MTT, read-out: Viability rate): 42.8%
- IC50 (Nalm-6; Nalm-6, MTT, range 0.3–200 μM, six replicates): 48 µM
- viability at 0.3 µM (Molt-4; Molt-4, 0.3 μM): 84.4 ± 0.14%
- viability at 0.5 µM (Molt-4; Molt-4, 0.5 μM): 79.7 ± 0.1%
- viability at 1 µM (Molt-4; Molt-4, 1 μM): 78.7 ± 0.09%
- viability at 3 µM (Molt-4; Molt-4, 3 μM): 79.7 ± 0.18%
- viability at 5 µM (Molt-4; Molt-4, 5 μM): 80.5 ± 0.16%
- viability at 10 µM (Molt-4; Molt-4, 10 μM): 81.8 ± 0.07%
- viability at 15 µM (Molt-4; Molt-4, 15 μM): 79.2 ± 0.15%
- viability at 20 µM (Molt-4; Molt-4, 20 μM): 76 ± 0.05%
- viability at 30 µM (Molt-4; Molt-4, 30 μM): 75.4 ± 0.08%
- viability at 50 µM (Molt-4; Molt-4, 50 μM): 73.5 ± 0.04%
- viability at 70 µM (Molt-4; Molt-4, 70 μM): 68.9 ± 0.06%
- viability at 100 µM (Molt-4; Molt-4, 100 μM): 61.7 ± 0.02%
- viability at 150 µM (Molt-4; Molt-4, 150 μM): 59.9 ± 0.05%
- viability at 200 µM (Molt-4; Molt-4, 200 μM): 55.2 ± 0.04%
- viability at 0.3 µM (Reh; 0.3 μM): 109.5 ± 0.02%
- viability at 0.5 µM (Reh; 0.5 μM): 105.2 ± 0.02%
- viability at 1 µM (Reh; 1 μM): 106.8 ± 0.01%
- viability at 3 µM (Reh; 3 μM): 107.9 ± 0.02%
- viability at 5 µM (Reh; 5 μM): 108.2 ± 0.01%
- viability at 10 µM (Reh; 10 μM): 106.9 ± 0.02%
- viability at 15 µM (Reh; 15 μM): 106.5 ± 0.02%
- viability at 20 µM (Reh; 20 μM): 97.7 ± 0.02%
- viability at 30 µM (Reh; 30 μM): 88.6 ± 0.03%
- viability at 50 µM (Reh; 50 μM): 85.6 ± 0.02%
- viability at 70 µM (Reh; 70 μM): 65.3 ± 0.02%
- viability at 100 µM (Reh; 100 μM): 62.2 ± 0.01%
- viability at 150 µM (Reh; 150 μM): 61.3 ± 0.01%
- viability at 200 µM (Reh; 200 μM): 61.1 ± 0.02%
- viability at 3 µM (Jurkat; 3 μM): 79.1 ± 0.02%
- viability at 5 µM (Jurkat; 5 μM): 69.8 ± 0.02%
- viability at 10 µM (Jurkat; 10 μM): 69.7 ± 0.05%
- viability at 15 µM (Jurkat; 15 μM): 69.2 ± 0.02%
- viability at 20 µM (Jurkat; 20 μM): 68.9 ± 0.01%
- viability at 30 µM (Jurkat; 30 μM): 68.8 ± 0.03%
- viability at 50 µM (Jurkat; 50 μM): 59.1 ± 0.03%
- viability at 70 µM (Jurkat; 70 μM): 47.8 ± 0.01%
- viability at 100 µM (Jurkat; 100 μM): 44 ± 0.01%
- viability at 150 µM (Jurkat; 150 μM): 36.4 ± 0.01%
- viability at 200 µM (Jurkat; 200 μM): 35.3 ± 0.01%
- viability at 24 h, 0.3 µM ([1]; Hek293T cells (non-leukemic control cell line), 0.3 μM): 91.1 ± 0.15%
- viability at 24 h, 0.5 µM ([1]; Hek293T cells (non-leukemic control cell line), 0.5 μM): 90.8 ± 0.14%
- viability at 24 h, 3 µM ([1]; Hek293T cells (non-leukemic control cell line), 3 μM): 81.4 ± 0.09%
- viability at 24 h, 5 µM ([1]; Hek293T cells (non-leukemic control cell line), 5 μM): 78.5 ± 0.14%
- viability at 24 h, 10 µM ([1]; Hek293T cells (non-leukemic control cell line), 10 μM): 78.2 ± 0.02%
- viability at 24 h, 15 µM ([1]; Hek293T cells (non-leukemic control cell line), 15 μM): 70.6 ± 0.04%
- viability at 24 h, 20 µM ([1]; Hek293T cells (non-leukemic control cell line), 20 μM): 65.5 ± 0.1%
- viability at 24 h, 30 µM ([1]; Hek293T cells (non-leukemic control cell line), 30 μM): 57.4 ± 0.09%
- viability at 24 h, 50 µM ([1]; Hek293T cells (non-leukemic control cell line), 50 μM): 50.7 ± 0.05%
- viability at 24 h, 70 µM ([1]; Hek293T cells (non-leukemic control cell line), 70 μM): 48.8 ± 0.02%
- viability at 24 h, 100 µM ([1]; Hek293T cells (non-leukemic control cell line), 100 μM): 47.9 ± 0.01%
- viability at 24 h, 150 µM ([1]; Hek293T cells (non-leukemic control cell line), 150 μM): 47.7 ± 0.02%
- viability at 24 h, 200 µM ([1]; Hek293T cells (non-leukemic control cell line), 200 μM): 47 ± 0.02%
- viability at 24 h, 1 µM ([1]; Hek293T cells, 1 μM): 87 ± 0.15%
- anticancer activity according to MTT assay results [2]: high anticancer activity
